{"source": "paper PMC8708252", "about": "“Silymarin Dehydroflavonolignans Chelate Zinc and Partially Inhibit Alcohol Dehydrogenase” (Nutrients, 2021)", "assay_type_in_all_cases": "biochemical", "key": {"[1]": {"target": "T1, bovine glutamate dehydrogenase type I (GDH) (Bos taurus, UniProt P00366)", "T1 construct": "gene GLUD1", "T1 sequence (P00366 58-558)": "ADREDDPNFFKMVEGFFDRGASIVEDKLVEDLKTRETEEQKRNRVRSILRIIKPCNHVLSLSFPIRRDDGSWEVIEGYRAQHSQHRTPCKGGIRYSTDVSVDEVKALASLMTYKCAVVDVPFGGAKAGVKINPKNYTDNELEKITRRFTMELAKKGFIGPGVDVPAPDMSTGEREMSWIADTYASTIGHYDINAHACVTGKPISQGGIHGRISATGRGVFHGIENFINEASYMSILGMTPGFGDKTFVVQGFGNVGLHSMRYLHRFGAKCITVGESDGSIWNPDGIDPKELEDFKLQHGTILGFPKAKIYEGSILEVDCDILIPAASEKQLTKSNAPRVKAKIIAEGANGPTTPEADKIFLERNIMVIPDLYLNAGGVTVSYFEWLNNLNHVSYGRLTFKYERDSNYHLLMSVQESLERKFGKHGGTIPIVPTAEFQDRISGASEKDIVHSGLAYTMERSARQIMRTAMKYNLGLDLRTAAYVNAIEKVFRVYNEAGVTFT", "assay": "NADH absorbance ([…] nm) assay with and without […] zinc"}, "[2]": {"target": "T2, equine alcohol dehydrogenase (ADH) (Equus caballus, UniProt P00327)", "T2 construct": "recombinant equine ADH", "T2 sequence (P00327 2-375)": "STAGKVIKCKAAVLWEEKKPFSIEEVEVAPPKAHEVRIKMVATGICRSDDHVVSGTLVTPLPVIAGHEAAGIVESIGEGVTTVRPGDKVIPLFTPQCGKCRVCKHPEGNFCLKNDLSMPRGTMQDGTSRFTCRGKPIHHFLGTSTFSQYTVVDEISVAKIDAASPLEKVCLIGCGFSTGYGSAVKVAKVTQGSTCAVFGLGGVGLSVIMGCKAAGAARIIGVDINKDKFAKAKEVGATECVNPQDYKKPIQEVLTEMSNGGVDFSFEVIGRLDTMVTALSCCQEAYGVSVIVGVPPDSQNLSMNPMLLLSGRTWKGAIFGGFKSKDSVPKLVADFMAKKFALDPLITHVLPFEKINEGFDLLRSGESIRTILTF", "assay": "NADH absorbance ([…] nm) ethanol oxidation assay with recombinant enzyme"}, "[3]": {"target": "T2, equine alcohol dehydrogenase (ADH)", "assay": "NADH absorbance ([…] nm) ethanol oxidation assay with recombinant enzyme", "remark": "listed apart in the source"}, "[4]": {"target": "T3, yeast alcohol dehydrogenase (ADH) (Saccharomyces cerevisiae, UniProt P00330)", "T3 construct": "gene ADH1", "T3 sequence (P00330 2-348)": "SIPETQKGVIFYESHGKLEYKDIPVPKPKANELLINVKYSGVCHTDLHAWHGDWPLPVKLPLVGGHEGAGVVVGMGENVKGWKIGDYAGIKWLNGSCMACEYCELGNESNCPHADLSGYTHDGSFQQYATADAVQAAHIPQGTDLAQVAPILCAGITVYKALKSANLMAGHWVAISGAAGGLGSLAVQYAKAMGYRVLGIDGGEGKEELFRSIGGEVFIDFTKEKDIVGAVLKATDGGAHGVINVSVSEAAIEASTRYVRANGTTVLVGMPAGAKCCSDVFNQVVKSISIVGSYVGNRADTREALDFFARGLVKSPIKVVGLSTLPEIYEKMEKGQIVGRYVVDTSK", "assay": "NADH absorbance ([…] nm) ethanol oxidation assay with isolated enzyme"}, "[5]": {"target": "T2, equine alcohol dehydrogenase (ADH)", "assay": "NADH absorbance ([…] nm) ethanol oxidation assay with recombinant enzyme", "remark": "listed apart in the source"}}, "data": [{"smiles": "COc1cc(C2Oc3cc(-c4oc5cc(O)cc(O)c5c(=O)c4O)ccc3OC2CO)ccc1O", "note": "(racemic) [DHS, 2,3-dehydrosilybin]", "values": [{"measurement": "NADH absorbance (340 nm) assay with and without 150 μM zinc", "setting": "[1]", "value": "they were particularly potent inhibitors of the enzyme itself"}]}, {"smiles": "COc1cc([C@H]2Oc3cc(-c4oc5cc(O)cc(O)c5c(=O)c4O)ccc3O[C@@H]2CO)ccc1O", "note": "[DHS-A, 2,3-dehydrosilybin A]", "values": [{"measurement": "inhibition at 10 µM", "setting": "[2]", "value": "~20", "unit": "%"}]}, {"smiles": "COc1cc([C@@H]2Oc3cc(-c4oc5cc(O)cc(O)c5c(=O)c4O)ccc3O[C@H]2CO)ccc1O", "note": "[DHS-B, 2,3-dehydrosilybin B]", "values": [{"measurement": "NADH absorbance (340 nm) ethanol oxidation assay with recombinant enzyme", "setting": "[3]", "value": "Inhibition of equine ADH by active flavonolignans"}]}, {"smiles": "Cc1cn[nH]c1", "note": "[fomepizole]", "values": [{"measurement": "IC50", "setting": "[4]", "value": 14, "unit": "mM"}, {"measurement": "IC50", "setting": "[5]", "value": 0.00525, "unit": "mM"}]}]}
